Reference: patent US11918693B2, “Ibuprofen and acetaminophen tablet” (GlaxoSmithKline Consumer Healthcare Holdings (US) LLC, priority 2019, dated 2024)

System: patients with at least moderate pain after extraction of 3 third molar teeth
Experiment: Study 1: phase 2 single-dose dental pain study, analgesic efficacy and tolerability of 3 FDCs of IBU/APAP vs IBU 400 mg and placebo
Type: in vivo, human
Conditions: single oral dose, IBU dose 400 mg
Description: Study 1 was a phase 2, 12-hour, 5-arm, randomized, double-blind, parallel group, in-patient, placebo-controlled study designed to determine the overall analgesic efficacy of 3 different FDCs of IBU/APAP compared with IBU 400 mg and placebo.
All study procedures were in compliance with the ethical principles originating in or derived from the Declaration of Helsinki and with all International Council for Harmonization Good Clinical Practice Guidelines, as well as local regulatory requirements. All patients provided written informed consent. Eligible patients were healthy males or females aged 16-40 years, inclusive, who had undergone extraction of 3 third molar teeth (with at least 2 having been partial or complete bony mandibular impactions) and had developed at least moderate pain within 5 hours of the oral surgery. Other entry criteria included: use of only the following preoperative medications/anesthetics: topical benzocaine, a short-acting parenteral local anesthetic (mepivacaine or lidocaine) with or without a vasoconstrictor and/or nitrous oxide; no contraindications to the study or rescue medications; and being sufficiently reliable, cooperative, and intelligent to record the requested information on the analgesic questionnaire form.
Upon experiencing at least moderate pain, patients were randomized 1:3:3:3:3 to receive a single oral dose of placebo; IBU 400 mg; FDC IBU/APAP 200 mg/500 mg; FDC IBU/APAP 250 mg/500 mg; or FDC IBU/APAP 300 mg/500 mg.
Patients could receive 2 additional doses of rescue medication at the study center. Patients were permitted to take rescue medication at any time but were encouraged to wait at least 1 hour after taking study medication to allow time for the medication to exert its effect. Patients who took rescue medication remained at the study site for the full duration of the study and continued to perform assessments.
At baseline, patients rated their pain severity using a categorical and a numerical pain severity rating (PSR) scale. The categorical PSR was a 4-point scale (none, mild, moderate, severe), with each category assigned a value from 0-3, respectively. The achievement of moderate pain at baseline was confirmed by a score of >50 mm on a 100-mm visual analog pain scale. Additionally, pain was assessed using an 11-point numerical PSR (0-10; 0=none to 10=worst possible pain).
Following the administration of study medication, patients were followed and evaluated on site for 12 hours. During that time, study participants provided self-ratings of pain severity (on both categorical and numerical PSR scales as described above) and pain relief: using a 5-point categorical pain relief rating (PRR) scale (0=none, 1=a little, 2=some, 3=a lot, and 4=complete) at 0.25, 0.5, 1, 1.5, 2, 3, 4, 5, 6, 7, 8, 9, 10, 11, and 12 hours post-treatment, after taking study medication, immediately before taking rescue medication, or at time of study withdrawal (if either occurred).
Additional patient assessments included time to first perceptible relief (TFPR) and time to meaningful pain relief (TMPR) using the double-stopwatch method, in which the first stopwatch was pressed by the patient when pain relief was first perceived, and the second when that relief became meaningful. Duration of pain relief was measured by the time to treatment failure (i.e., the time of first dose of rescue medication or dropout due to lack of efficacy). At 12 hours or immediately before taking rescue medication for the first time, patients also provided a Patient Global Evaluation based on a 6-point categorical scale ranging from 0 (very poor) to 5 (excellent).
The primary endpoint was the time-weighted sum of pain relief and pain intensity difference (PID) scores from baseline (time 0) through 8 hours (SPRID[4]0-8) after dosing based on PRR and categorical PSR. […]

## CC(C)Cc1ccc(C(C)C(=O)O)cc1 (centres unmarked) [IBU, 2-(4-isobutylphenyl) propionic acid]
  Alveolar osteitis, treatment-emergent adverse event, %: (2.2) %
  Dizziness, treatment-emergent adverse event, %: (7.6) %
  Feeling hot, treatment-emergent adverse event, %: (4.3) %
  Median time to first perceptible relief (TFPR): 24.9 min
  Median time to meaningful relief (TMPR): 56.2 min
  Median time to treatment failure (duration of relief): 10.4 h
  Nausea, treatment-emergent adverse event, %: (23.9) %
  TOTPAR0-2, mean (time-weighted sum of pain relief rating scores over 0-2 hours): 4.0
  Tension headache, treatment-emergent adverse event, %: (4.3) %
  Tremor, treatment-emergent adverse event, %: (2.2) %
  Vomiting, treatment-emergent adverse event, %: (15.2) %
0-6 hours
  TOTPAR0-6, mean: 14.3
0-8 hours
  TOTPAR0-8, mean: 18.4
0-12 hours
  TOTPAR0-12, mean: 23.9
